Columns and labels:
Assay type in all cases: biochemical
[1] = target: CDK-2 enzyme, complexed with cyclin A (Homo sapiens, UniProt P24941); assay: CDK2 kinase assay (33P peptide phosphorylation); conditions: 0.1 mM ATP, cyclin A complex
Procedure: (§1) The assay mixture containing the inhibitor and CDK-2 enzyme, complexed with cyclin A (0.4 U/ml) was mixed together in a microtiter plate in a final volume of 50 μl and incubated for 40 min at 30° C. The assay mixture contained 0.1 mM unlabeled ATP, 0.01 μCi/μl ^33P-γ-ATP, 0.03 mM peptide, 0.1 mg/ml BSA, 7.5 mM magnesium acetate, 50 mM HEPES-NaOH, pH 7.5. The reaction was stopped by adding 50 μl of 50 mM phosphoric acid. 90 μl of the mixture were transferred to a pre-wetted 96-well Multiscreen MAPHNOB filtration plate (Millipore) and filtered on a vacuum manifold. The filter plate was washed with 3 successive additions of 200 μl 50 mM phosphoric acid and then with 100 μl methanol. The filtration plate was dried for 10 min at 65° C., scintillant added and phosphorylated peptide quantified in a scintillation counter (Trilux, PerkinElmer)

PDK1 = target: T1, PDK1 (Homo sapiens, UniProt O15530); assay: PDK1 kinase assay (33P peptide phosphorylation); conditions: 0.01 mM ATP, 60 min at 30° C.; read-out: PDK-1 IC50
T1 sequence (O15530 1-556): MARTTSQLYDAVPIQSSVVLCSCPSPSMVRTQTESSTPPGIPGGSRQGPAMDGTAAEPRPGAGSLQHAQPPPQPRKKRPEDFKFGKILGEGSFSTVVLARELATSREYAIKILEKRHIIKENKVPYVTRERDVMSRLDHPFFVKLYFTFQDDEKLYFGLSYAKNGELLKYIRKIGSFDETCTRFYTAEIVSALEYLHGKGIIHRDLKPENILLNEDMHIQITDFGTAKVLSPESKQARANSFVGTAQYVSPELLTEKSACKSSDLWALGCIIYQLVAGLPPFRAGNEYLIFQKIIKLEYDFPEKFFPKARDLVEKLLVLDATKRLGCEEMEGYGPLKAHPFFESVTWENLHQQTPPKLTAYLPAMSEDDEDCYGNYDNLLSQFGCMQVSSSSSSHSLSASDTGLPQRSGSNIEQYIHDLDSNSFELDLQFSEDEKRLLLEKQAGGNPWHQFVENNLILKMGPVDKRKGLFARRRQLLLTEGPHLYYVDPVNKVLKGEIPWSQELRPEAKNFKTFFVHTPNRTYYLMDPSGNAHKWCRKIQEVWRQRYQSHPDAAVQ
Procedure: as §1, with “and PDK1 enzyme” for “and CDK-2 enzyme, complexed with cyclin A (0.4 U/ml)”, “for 60” for “for 40”, “contained 0.01” for “contained 0.1”, “^33P-γ-ATP, 0.075” for “^33P-γ-ATP, 0.03”, “acetate, 0.05M Tris.HCl,” for “acetate, 50 mM HEPES-NaOH,”, “pH 7.5, 0.5% 2-mercaptoethanol.” for “pH 7.5.”

Akt1 = target: T2, Akt1 (Homo sapiens, UniProt P31749); assay: Akt1 kinase assay (Histone H1 substrate); conditions: 200 μM ATP, read-out: AKT-1 IC50
T2 construct: purchased Upstate
T2 sequence (P31749 whole entry, species assumed): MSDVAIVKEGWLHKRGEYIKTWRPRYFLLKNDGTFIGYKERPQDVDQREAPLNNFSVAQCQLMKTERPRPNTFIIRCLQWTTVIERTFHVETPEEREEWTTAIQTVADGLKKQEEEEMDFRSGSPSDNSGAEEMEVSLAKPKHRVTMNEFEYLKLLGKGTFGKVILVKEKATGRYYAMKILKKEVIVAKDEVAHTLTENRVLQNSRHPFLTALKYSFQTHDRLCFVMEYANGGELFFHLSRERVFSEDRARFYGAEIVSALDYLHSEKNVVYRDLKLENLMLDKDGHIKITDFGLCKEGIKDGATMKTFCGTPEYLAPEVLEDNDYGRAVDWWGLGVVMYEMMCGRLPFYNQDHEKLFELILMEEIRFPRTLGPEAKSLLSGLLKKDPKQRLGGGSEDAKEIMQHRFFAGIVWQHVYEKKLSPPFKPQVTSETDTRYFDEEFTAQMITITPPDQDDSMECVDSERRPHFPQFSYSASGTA
Procedure: Assays for the cyclin dependent kinase activity were carried out by monitoring the phosphorylation of a synthetic peptide, HATTPKKKRK. The assay mixture containing the inhibitor and CDK-2 enzyme, complexed with cyclin A (0.4 U/ml) was mixed together in a microtiter plate in a final volume of 50 μl and incubated for 40 min at 30° C. The assay mixture contained 0.1 mM unlabeled ATP, 0.01 μCi/μl ^33P-γ-ATP, 0.03 mM peptide, 0.1 mg/ml BSA, 7.5 mM magnesium acetate, 50 mM HEPES-NaOH, pH 7.5. The reaction was stopped by adding 50 μl of 50 mM phosphoric acid. 90 μl of the mixture were transferred to a pre-wetted 96-well Multiscreen MAPHNOB filtration plate (Millipore) and filtered on a vacuum manifold. The filter plate was washed with 3 successive additions of 200 μl 50 mM phosphoric acid and then with 100 μl methanol. The filtration plate was dried for 10 min at 65° C., scintillant added and phosphorylated peptide quantified in a scintillation counter (Trilux, PerkinElmer)
Protocol for the Akt assay is the same for CDK2 except that, 3 nM Akt1 (Upstate) was used with Histone H1 as substrate with a final ATP concentration of 200 μM. The reaction was incubated at 30° C. for 40 minutes.

PKA = target: T3, PKA (Homo sapiens, UniProt P17612); assay: PKA kinase assay (Kemptide substrate); conditions: 100 μM ATP
T3 construct: purchased Upstate
Procedure: as §1
The PKA assay was incubated at 30° C. for 30 minutes.

GST-Chk1 enzyme = target: T4, GST-Chk1 enzyme (Homo sapiens, UniProt O14757); assay: Chk1 kinase assay (33P Chktide phosphorylation); conditions: 0.01 mM ATP, 40 minutes at 30° C.; read-out: CHK-1 IC50
T4 sequence (O14757 1-476): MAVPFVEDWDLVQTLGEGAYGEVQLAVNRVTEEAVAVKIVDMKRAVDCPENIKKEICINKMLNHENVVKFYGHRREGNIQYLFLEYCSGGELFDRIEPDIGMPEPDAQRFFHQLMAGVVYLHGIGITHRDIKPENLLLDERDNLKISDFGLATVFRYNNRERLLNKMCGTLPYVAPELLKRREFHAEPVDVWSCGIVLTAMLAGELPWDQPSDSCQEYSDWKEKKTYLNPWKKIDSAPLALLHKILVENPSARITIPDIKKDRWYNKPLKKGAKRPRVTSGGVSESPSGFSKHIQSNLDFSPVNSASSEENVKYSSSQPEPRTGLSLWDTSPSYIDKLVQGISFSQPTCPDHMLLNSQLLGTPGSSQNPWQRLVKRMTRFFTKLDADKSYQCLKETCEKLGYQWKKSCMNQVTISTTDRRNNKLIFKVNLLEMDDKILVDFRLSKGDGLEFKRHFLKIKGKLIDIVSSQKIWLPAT
Procedure: as §1, with “and Chk1 enzyme” for “and CDK-2 enzyme, complexed with cyclin A (0.4 U/ml)”, “40 minutes” for “40 min”, “C. […]” for “C. The assay mixture contained 0.1 mM unlabeled ATP, 0.01 μCi/μl ^33P-γ-ATP, 0.03 mM peptide, 0.1 mg/ml BSA, 7.5 mM magnesium acetate, 50 mM HEPES-NaOH, pH 7.5.”, “mixture was” for “mixture were”, “96-well multi-screen” for “96-well Multiscreen”

Row | SMILES | IC50 [1] | IC50 (PDK1) | IC50 (Akt1) | IC50 (PKA) | IC50 (GST-Chk1 enzyme)
1 | Cc1[nH]nc(-c2nc3ccccc3[nH]2)c1C(=O)NC1CCNCC1 [Example 1, 3-(1H-Benzoimidazol-2-yl)-5-methyl-1H-pyrazole-4-carboxylic Acid piperidin-4-ylamide] | 3.3 µM | 0.108 µM | 17.1 µM | 7.26 µM | 0.098 µM
2 | Cc1cc2nc(-c3n[nH]c(C)c3C(=O)NC3CCCNC3)[nH]c2cc1C (centres unmarked) [Example 2, 3-(5,6-Dimethyl-1H-benzoimidazol-2-yl)-5-methyl-1H-pyrazole-4-carboxylic Acid piperidin-3-ylamide] | 3.6 µM | 0.219 µM | 15.9 µM | 7.84 µM | 0.055 µM
3 | Cc1cc2nc(-c3n[nH]c(C)c3C(=O)NC3CCCN(C)C3)[nH]c2cc1C (centres unmarked) [Example 3, 3-(5,6-Dimethyl-1H benzoimidazole-2-yl)-5-methyl-1H-pyrazole-4-carboxylic Acid (1-methyl-piperidin-3-yl)-amide] | 30.9 µM | 0.44 µM | 41.3 µM | 23.4 µM | 0.077 µM
4 | Cc1[nH]nc(-c2nc3ccccc3[nH]2)c1C(=O)NCCCN [Example 4, 3-(1H-Benzoimidazol-2-yl)-5-methyl-1H-pyrazole-4-carboxylic Acid (3-amino-propyl)-amide] | 39.8 µM | 0.212 µM | > 50 µM | 20.7 µM | 0.031 µM
5 | Cc1[nH]nc(-c2nc3cc4ccccc4cc3[nH]2)c1C(=O)NC1CCNCC1 [Example 5, 5-Methyl-3-(1H-naphtho[2,3-d]imidazol-2-yl)-1H-pyrazole-4-carboxylic Acid piperidine-4-ylamide] | 4.54 µM | 0.058 µM | > 50 µM | 3.24 µM | 0.01 µM
6 | CCOC(=O)c1ccc2nc(-c3n[nH]c(C)c3C(=O)NC3CCNCC3)[nH]c2c1 [Example 6, 2-[5-Methyl-4-(piperidin-4-ylcarbamoyl)-1H-pyrazol-3-yl]-3H-benzimidazole-5-carboxylic Acid Ethyl Ester] | 39.5 µM | 0.433 µM | > 50 µM | 40.2 µM | 0.023 µM
7 | Cc1[nH]nc(-c2nc3ccc(C(=O)NC4CCCC4)cc3[nH]2)c1C(=O)NC1CCNCC1 [Example 7, 2-[5-Methyl-4-(piperidin-4-ylcarbamoyl)-1H-pyrazol-3-yl]-3H-benzimidazole-5-carboxylic Acid Cyclopentylamide] | 9.24 µM | 0.07 µM | 28.6 µM | 12.6 µM | 0.043 µM
8 | Cc1[nH]nc(-c2nc3ccc(-c4cc5ccccc5[nH]4)cc3[nH]2)c1C(=O)NC1CCNCC1 [Example 8, 3-[6-(1H-Indol-2-yl)-1H-benzimidazo-2-yl]-5-methyl-1H-pyrazole-4-carboxylic Acid piperidin-4-ylamide] | 2.8 µM | 0.019 µM | 5.84 µM | 1.34 µM | 0.012 µM
9 | Cc1[nH]nc(-c2nc3ccccc3[nH]2)c1C(=O)NCC1CCNCC1 [Example 9] | 47 µM | 0.129 µM | 11.1 µM | 7.51 µM | 0.208 µM
10 | Cc1[nH]nc(-c2nc3ccccc3[nH]2)c1C(=O)NC1CCN(Cc2ccccc2)CC1 [Example 10] | 44 µM | 0.435 µM | > 50 µM | 29.1 µM | 0.107 µM
11 | Cc1[nH]nc(-c2nc3cc4nc[nH]c4cc3[nH]2)c1C(=O)NC1CCNCC1 [Example 11] | 38.9 µM | 0.12 µM | > 50 µM | 7.77 µM | 0.088 µM
12 | Cc1[nH]nc(-c2nc3c(F)c(F)ccc3[nH]2)c1C(=O)NC1CCNCC1 [Example 12] | 10.5 µM | 0.485 µM | > 50 µM | 20.9 µM | 0.609 µM
13 | Cc1[nH]nc(-c2nc3cc(F)c(F)cc3[nH]2)c1C(=O)NC1CCNCC1 [Example 13] | 7.92 µM | 0.52 µM | > 50 µM | 19.3 µM | 0.508 µM
14 | Cc1[nH]nc(-c2nc3cc(Cl)c(Cl)cc3[nH]2)c1C(=O)NC1CCNCC1 [Example 15] | 4.77 µM | 0.123 µM | > 50 µM | 8.85 µM | 0.295 µM
15 | Cc1[nH]nc(-c2nc3ccccc3[nH]2)c1C(=O)NCCCCN [Example 16] | 43.5 µM | 0.249 µM | > 50 µM | 20.7 µM | 0.213 µM
16 | Cc1[nH]nc(-c2nc3cc(Cl)ccc3[nH]2)c1C(=O)NC1CCNCC1 [Example 17] | 10.6 µM | 0.189 µM | > 50 µM | 9.03 µM | 0.222 µM
17 | Cc1[nH]nc(-c2nc3cc(C#N)ccc3[nH]2)c1C(=O)NC1CCNCC1 [Example 18] | 12.2 µM | 0.311 µM | > 50 µM | 22.6 µM | 0.137 µM
18 | Cc1[nH]nc(-c2nc3ccccc3[nH]2)c1C(=O)NC1CCCNC1 (centres unmarked) [Example 19] | 4.47 µM | 0.05 µM | > 50 µM | 10.9 µM | 0.058 µM
19 | Cc1[nH]nc(-c2nc3ccc(C(=O)NC4CCc5ccccc54)cc3[nH]2)c1C(=O)NC1CCNCC1 (centres unmarked) [Example 48] | – | < 0.05 µM | – | – | –
20 | Cc1[nH]nc(-c2nc3ccc(C(C)C)cc3[nH]2)c1C(=O)NC1CC2CCC(C1)N2C (centres unmarked) [Example 49] | – | < 0.5 µM | – | – | < 0.5 µM
21 | Cc1[nH]nc(-c2nc3ccccc3[nH]2)c1C(=O)NCCN [Example 50] | – | < 0.5 µM | – | – | < 0.5 µM

From US20090131470A1, “PYRAZOLE-SUBSTITUTED BENZIMIDAZOLE DERIVATIVES FOR USE IN THE TREATMENT OF CANCER AND AUTOIMMUNE DISORDERS” (priority 2005, published 2009)
